Where two headings read alike, the source gives them in different places.
Key:
[1] = biological target: GCN2 kinase (Homo sapiens, UniProt Q9P2K8); assay: GCN2 enzyme inhibition assay (Transcreener ADP2 fluorescence polarization); assay type: biochemical; details: 280 μM ATP
Procedure, shortened: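 4 nM GCN2 + 200 μM (RS)7 + compound (0–8 μM), 10 min preinc.; start with ATP (280 μM final); 1 h, 25 °C; pH 7.5 Tris/NaCl/MgCl2/DTT; ADP FP readout; IC50, Ki(app) via tight-binding fit.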

[2] = biological target: intracellular GCN2 (phosphorylation of the GCN2 substrate eIF2α) (Homo sapiens, UniProt Q9P2K8); assay: GCN2 cellular inhibition assay (AlphaScreen SureFire P-eIF2α Ser51, borrelidin-treated U2OS cells); assay type: cell-based
Procedure, shortened: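 Phospho-eIF2α (Ser51) in lysates was quantified by AlphaScreen SureFire after a 1 h, 37 °C treatment of U2OS cells with 10 μM borrelidin and compound at 4-fold dilutions starting from 40 μM final. Inhibition expressed in percent against wells stimulated by borrelidin alone.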

[3] = compounds of Formula II, 4 nM GCN2 kinase
[4] = compounds of Formula II, biomarker assay, phosphorylated eIF2α Ser51 in borrelidin-treated U2OS cells
[5] = Enzyme activity for compounds of Formula IV, Ki(app), 25° C.
[6] = compounds of Formula IV, biomarker assay, phosphorylated eIF2α Ser51 in borrelidin-treated U2OS cells

Sequence of GCN2 kinase (Q9P2K8 whole entry): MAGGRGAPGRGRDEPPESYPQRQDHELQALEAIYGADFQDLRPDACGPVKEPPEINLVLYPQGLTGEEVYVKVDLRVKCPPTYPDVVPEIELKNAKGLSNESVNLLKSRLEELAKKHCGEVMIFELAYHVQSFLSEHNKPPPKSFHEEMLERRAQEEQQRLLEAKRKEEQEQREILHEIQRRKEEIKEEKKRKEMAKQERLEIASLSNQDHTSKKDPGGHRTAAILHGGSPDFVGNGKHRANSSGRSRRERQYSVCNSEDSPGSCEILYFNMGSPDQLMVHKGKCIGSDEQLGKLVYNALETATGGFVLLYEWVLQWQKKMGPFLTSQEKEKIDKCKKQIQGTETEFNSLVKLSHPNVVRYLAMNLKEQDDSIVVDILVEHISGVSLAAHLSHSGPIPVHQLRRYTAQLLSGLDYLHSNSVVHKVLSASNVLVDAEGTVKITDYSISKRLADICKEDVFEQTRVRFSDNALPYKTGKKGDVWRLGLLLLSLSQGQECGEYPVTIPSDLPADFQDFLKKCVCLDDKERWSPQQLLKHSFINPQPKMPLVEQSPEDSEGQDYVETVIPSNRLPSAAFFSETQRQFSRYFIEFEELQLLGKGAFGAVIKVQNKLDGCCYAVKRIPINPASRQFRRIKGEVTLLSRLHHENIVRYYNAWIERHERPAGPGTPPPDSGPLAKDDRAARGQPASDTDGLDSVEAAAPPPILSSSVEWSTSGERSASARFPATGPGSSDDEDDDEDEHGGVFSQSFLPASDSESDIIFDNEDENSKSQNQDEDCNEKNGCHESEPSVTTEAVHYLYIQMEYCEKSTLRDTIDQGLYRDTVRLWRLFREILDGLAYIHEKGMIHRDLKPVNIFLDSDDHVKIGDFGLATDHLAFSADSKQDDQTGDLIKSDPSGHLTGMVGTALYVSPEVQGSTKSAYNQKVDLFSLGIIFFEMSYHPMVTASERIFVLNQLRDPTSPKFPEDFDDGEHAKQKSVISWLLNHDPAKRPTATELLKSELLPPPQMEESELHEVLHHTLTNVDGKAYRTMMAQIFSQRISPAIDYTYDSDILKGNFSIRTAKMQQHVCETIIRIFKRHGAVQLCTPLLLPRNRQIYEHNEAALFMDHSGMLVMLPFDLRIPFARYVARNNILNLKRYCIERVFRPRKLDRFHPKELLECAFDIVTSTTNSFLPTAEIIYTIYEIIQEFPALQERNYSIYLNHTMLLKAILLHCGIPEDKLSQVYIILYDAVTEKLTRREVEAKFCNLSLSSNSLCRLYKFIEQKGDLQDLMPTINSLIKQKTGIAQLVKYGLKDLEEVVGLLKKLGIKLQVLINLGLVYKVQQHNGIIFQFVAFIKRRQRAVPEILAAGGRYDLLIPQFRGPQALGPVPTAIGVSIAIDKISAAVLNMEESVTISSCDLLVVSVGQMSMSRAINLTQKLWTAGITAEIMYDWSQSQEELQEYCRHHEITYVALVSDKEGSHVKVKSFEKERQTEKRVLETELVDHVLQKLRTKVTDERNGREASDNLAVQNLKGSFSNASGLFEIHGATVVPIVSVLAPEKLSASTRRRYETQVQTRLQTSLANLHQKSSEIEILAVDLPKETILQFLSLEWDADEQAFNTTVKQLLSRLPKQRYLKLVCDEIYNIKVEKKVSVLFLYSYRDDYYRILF
Sequence of intracellular GCN2 (phosphorylation of the GCN2 substrate eIF2α) (Q9P2K8 whole entry): as above

Ki [1, 3] | IC50 [2, 4] | Ki [1, 5] | IC50 [2, 6] | Structure (SMILES) | other results
10 to 1000 nM | 500 to 5000 nM | – | – | CS(=O)(=O)N[C@H]1CCCN(c2cc(-c3cnc4ccc(C(F)F)nn34)ncn2)C1 (single isomer, unassigned) [II-404] | –
– | – | < 10 nM | < 500 nM | CC1CN(c2ccnc(-c3cnc4cnc(Cl)cn34)n2)CC(c2cn[nH]c2)O1 (stereo not shown) [IV-193, 4-(2-(6-Chloroimidazo[1,2-a]pyrazin-3-yl)pyrimidin-4-yl)-2-methyl-6-(1H-pyrazol-4-yl)morpholine] | –
10 to 1000 nM | > 5000 nM | – | – | CC(=O)N1CCN(c2cc(-c3cnc4ccc(CO)nn34)ccn2)CC1 [II-185, 1-(4-(4-(6-(Hydroxymethyl)imidazo[1,2-b]pyridazin-3-yl)pyridin-2-yl)piperazin-1-yl)ethanone] | –
– | – | 100 to 1000 nM | > 5000 nM | OC[C@H]1CCCN(c2ccnc(-c3cnc4cnc(C(F)F)cn34)n2)C1 [IV-142, (S)-(1-(2-(6-(Difluoromethyl)imidazo[1,2-a]pyrazin-3-yl)pyrimidin-4-yl)piperidin-3-yl)methanol] | –
10 to 1000 nM | > 5000 nM | – | – | CS(=O)(=O)N1CCC12CCCN(c1cc(-c3cnc4ccc(C(F)F)nn34)ncn1)C2 (stereo not shown) [II-70, 6-(Difluoromethyl)-3-(6-(1-(methylsulfonyl)-1,6-diazaspiro[3.5]nonan-6-yl)pyrimidin-4-yl)imidazo[1,2-b]pyridazine] | –
– | – | 100 to 1000 nM | > 5000 nM | CN1CCN(c2ccnc(-c3cnc4cnc(C(F)F)cn34)n2)CC12CCNCC2 [IV-123, 4-(2-(6-(Difluoromethyl)imidazo[1,2-a]pyrazin-3-yl)pyrimidin-4-yl)-1-methyl-1,4,9-triazaspiro[5.5]undecane] | –
– | – | < 10 nM | < 500 nM | OCC1CC(c2cn[nH]c2)CN(c2ccnc(-c3cnc4cnc(C(F)(F)F)cn34)n2)C1 (stereo not shown) [IV-359, (5-(1H-Pyrazol-4-yl)-1-(2-(6-(trifluoromethyl)imidazo[1,2-a]pyrazin-3-yl)pyrimidin-4-yl)piperidin-3-yl)methanol] | –
– | – | < 10 nM | < 500 nM | C[C@@H]1[C@H](c2cn[nH]c2)OCCN1c1ccnc(-c2cnc3cnc(C#N)cn23)n1 (racemic) [IV-280, Cis-3-(4-(3-Methyl-2-(1H-pyrazol-4-yl)morpholino)pyrimidin-2-yl)imidazo[1,2-a]pyrazine-6-carbonitrile] | –
10 to 1000 nM | 500 to 5000 nM | – | – | CS(=O)(=O)NCC1CN(c2cc(-c3cnc4ccc(C(F)F)nn34)ncn2)CC(C2CC2)O1 (stereo not shown) [II-440, N-((6-Cyclopropyl-4-(6-(6-(difluoromethyl)imidazo[1,2-b]pyridazin-3-yl)pyrimidin-4-yl)morpholin-2-yl)methyl)methanesulfonamide] | –
10 to 1000 nM | > 5000 nM | – | – | CC1NCCN(c2cc(-c3cnc4ccc(C(F)(F)F)nn34)ncn2)C1c1cn[nH]c1 (stereo not shown) [II-707, 3-(6-(3-Methyl-2-(1H-pyrazol-4-yl)piperazin-1-yl)pyrimidin-4-yl)-6-(trifluoromethyl)imidazo[1,2-b]pyridazine] | –
– | – | 100 to 1000 nM | > 5000 nM | CC1(C(N)=O)CCCN(c2ccnc(-c3cnc4cnc(C(F)F)cn34)n2)C1 (stereo not shown) [IV-57, 1-(2-(6-(Difluoromethyl)imidazo[1,2-a]pyrazin-3-yl)pyrimidin-4-yl)-3-methylpiperidine-3-carboxamide] | –
– | – | – | < 500 nM | C[C@@H]1C[C@@H](c2cn[nH]c2)CN(c2ccnc(-c3cnc4cnc(C(F)(F)F)cn34)n2)C1 [IV-769, 3-(4-((3R,5S)-3-methyl-5-(1H-pyrazol-4-yl)piperidin-1-yl)pyrimidin-2-yl)-6-(trifluoromethyl)imidazo[1,2-a]pyrazine] | IC50 ([1]; compounds of Formula IV, 4 nM GCN2 kinase): 10 to 1000 nM
10 to 1000 nM | 500 to 5000 nM | – | – | CC1(F)CCN(c2cc(-c3cnc4ccc(C(F)F)nn34)ncn2)CC1CNS(C)(=O)=O (single isomer, unassigned) [II-388, N-((1-(6-(6-(Difluoromethyl)imidazo[1,2-b]pyridazin-3-yl)pyrimidin-4-yl)-4-fluoro-4-methylpiperidin-3-yl)methyl)methanesulfonamide] | –
10 to 1000 nM | > 5000 nM | – | – | CN1CCN(c2cc(-c3cnc4ccc(C(F)F)nn34)ccn2)CC1CO (stereo not shown) [II-97, (4-(4-(6-(Difluoromethyl)imidazo[1,2-b]pyridazin-3-yl)pyridin-2-yl)-1-methylpiperazin-2-yl)methanol] | –
10 to 1000 nM | 500 to 5000 nM | – | – | CS(=O)(=O)NC1(C2CCN(c3cc(-c4cnc5ccc(C(F)F)nn45)ncn3)C2)CC1 (stereo not shown) [II-439, N-(1-(1-(6-(6-(Difluoromethyl)imidazo[1,2-b]pyridazin-3-yl)pyrimidin-4-yl)pyrrolidin-3-yl)cyclopropyl)methanesulfonamide] | –
– | – | – | – | C[C@H]1CN(c2cc(-c3cnn4cc(F)c(C(F)F)nc34)ncn2)C[C@@H](CNS(C)(=O)=O)C1(F)F [III-11, N-[[(3S,5S)-1-[6-[5-(Difluoromethyl)-6-fluoro-pyrazolo[1,5-a]pyrimidin-3-yl]pyrimidin-4-yl]-4,4-difluoro-5-methyl-3-piperidyl]methyl]methanesulfonamide] | Ki ([1]; compounds of Formula III, 4 nM GCN2 kinase): < 10 nM; IC50 ([2]; compounds of Formula III, U2OS cells, 10 μM borrelidin, 1 h, read-out: GCN2 Biomarker (IC50)): < 500 nM
– | – | < 10 nM | 500 to 5000 nM | CC1CN(c2cncc(-c3cnc4cnc(C(F)(F)F)cn34)n2)C(C)C(c2cn[nH]c2)N1 (stereo not shown) [IV-577, 3-(6-(2,5-Dimethyl-3-(1H-pyrazol-4-yl)piperazin-1-yl)pyrazin-2-yl)-6-(trifluoromethyl)imidazo[1,2-a]pyrazine] | –
10 to 1000 nM | > 5000 nM | – | – | CC(=O)N1CCN(c2cc(-c3cnc4ccc(C(F)(F)F)nn34)ccn2)CC1 [II-223, 1-(4-(4-(6-(Trifluoromethyl)imidazo[1,2-b]pyridazin-3-yl)pyridin-2-yl)piperazin-1-yl)ethanone] | –
< 10 nM | < 500 nM | – | – | C[C@H]1CN(c2cc(-c3cnc4ccc(C(F)F)nn34)ncn2)C[C@@H](CNS(C)(=O)=O)C1(F)F [II-36, N-[[(3S,5S)-1-[6-[6-(Difluoromethyl)imidazo[1,2-b]pyridazin-3-yl]pyrimidin-4-yl]-4,4-difluoro-5-methyl-3-piperidyl]methyl]methanesulfonamide] | –
10 to 1000 nM | 500 to 5000 nM | – | – | Cn1cc(C(=O)N2CCCC(c3cc(-c4cnc5ccc(C(F)F)nn45)ncn3)C2)cn1 (stereo not shown) [II-41, (3-(6-(6-(Difluoromethyl)imidazo[1,2-b]pyridazin-3-yl)pyrimidin-4-yl)piperidin-1-yl)(1-methyl-1H-pyrazol-4-yl)methanone] | –
– | – | 10 to 100 nM | 500 to 5000 nM | FC(F)OC1CC(c2cn[nH]c2)CN(c2ccnc(-c3cnc4cnc(C(F)(F)F)cn34)n2)C1 (stereo not shown) [IV-472, 3-(4-(3-(Difluoromethoxy)-5-(1H-pyrazol-4-yl)piperidin-1-yl)pyrimidin-2-yl)-6-(trifluoromethyl)imidazo[1,2-a]pyrazine] | –
< 10 nM | < 500 nM | – | – | CS(=O)(=O)NCC1CN(c2cc(-c3cnc4ccc(C(F)F)nn34)ncn2)CC(C2CC2)O1 (stereo not shown) [II-443, N-((6-Cyclopropyl-4-(6-(6-(difluoromethyl)imidazo[1,2-b]pyridazin-3-yl)pyrimidin-4-yl)morpholin-2-yl)methyl)methanesulfonamide] | –
> 1000 nM | > 5000 nM | – | – | CC1C(CO)OCCN1c1cc(-c2cnc3ccc(C(F)F)nn23)ncn1 (single isomer, unassigned) [II-413, (4-(6-(6-(Difluoromethyl)imidazo[1,2-b]pyridazin-3-yl)pyrimidin-4-yl)-3-methylmorpholin-2-yl)methanol] | –

From patent publication US10988477B2 (Merck Patent GmbH, priority 2018, dated 2021)
